Test results as given in ChEMBL document CHEMBL1201862, “PubChem BioAssay data set” (2004).
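In this assay, cells in 96-well plates receive the compound at five concentrations for 48 hours. Endpoints are linearly interpolated between the surrounding concentrations. GI50: concentration for 50% inhibition of growth.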 The source made the active and inactive calls. Rule as the data show it: active = GI50 up to about 1.1 µM and inactive = higher.

Key:
Test in all cases: DTP human tumour cell line panel, 48 h
SW-620 = system: SW-620
TK-10 = system: TK-10
NCI-H460 = system: NCI-H460
SF-539 = system: SF-539
SNB-75 = system: SNB-75
NCI-H522 = system: NCI-H522
OVCAR-8 = system: OVCAR-8
SNB-19 = system: SNB-19
786-0 = system: 786-0
A498 = system: A498
A549 = system: A549
UO-31 = system: UO-31
HOP-92 = system: HOP-92
CCRF-CEM = system: CCRF-CEM
NCI-H23 = system: NCI-H23
UACC-62 = system: UACC-62
RPMI-8226 = system: RPMI-8226
UACC-257 = system: UACC-257
HCC 2998 = system: HCC 2998
SR = system: SR
IGROV-1 = system: IGROV-1
Hs-578T = system: Hs-578T
Malme-3M = system: Malme-3M
DU-145 = system: DU-145
HCT-15 = system: HCT-15
NCI-H226 = system: NCI-H226
MDA-MB-435 = system: MDA-MB-435
MDA-MB-231 = system: MDA-MB-231
HT-29 = system: HT-29
RXF 393 = system: RXF 393
HL-60 = system: HL-60
SF-268 = system: SF-268
COLO 205 = system: COLO 205
MDA-N = system: MDA-N
SK-MEL-28 = system: SK-MEL-28
OVCAR-3 = system: OVCAR-3
KM12 = system: KM12
M14 = system: M14
NCI/ADR-RES = system: NCI/ADR-RES
U-251 = system: U-251
SK-MEL-5 = system: SK-MEL-5
HCT-116 = system: HCT-116
OVCAR-4 = system: OVCAR-4
PC-3 = system: PC-3
LOX IMVI = system: LOX IMVI
SF-295 = system: SF-295
MOLT-4 = system: MOLT-4
EKVX = system: EKVX
HOP-62 = system: HOP-62
CAKI-1 = system: CAKI-1
ACHN = system: ACHN
OVCAR-5 = system: OVCAR-5
K562 = system: K562
SN12C = system: SN12C

For `O=c1c2cc([N+](=O)[O-])ccc2[nH]n1Cc1ccccn1`, the GI50 (SW-620) was > 100 µM (inactive), the GI50 (TK-10) was > 100 µM (inactive) and the GI50 (NCI-H460) was > 100 µM (inactive). For the same molecule, the GI50 (SF-539) was > 100 µM (inactive), the GI50 (SNB-75) was > 100 µM (inactive) and the GI50 (NCI-H522) was > 100 µM (inactive). For the same molecule, the GI50 (OVCAR-8) was > 100 µM (inactive), the GI50 (SNB-19) was > 100 µM (inactive) and the GI50 (786-0) was > 100 µM (inactive). For the same molecule, the GI50 (A498) was > 100 µM (inactive), the GI50 (A549) was > 100 µM (inactive) and the GI50 (UO-31) was > 100 µM (inactive). The GI50 (HOP-92) was > 100 µM (inactive), the GI50 (CCRF-CEM) was > 100 µM (inactive) and the GI50 (NCI-H23) was > 100 µM (inactive). The GI50 (UACC-62) was > 100 µM (inactive), the GI50 (RPMI-8226) was > 100 µM (inactive) and the GI50 (UACC-257) was > 100 µM (inactive). The GI50 (HCC 2998) was > 100 µM (inactive), the GI50 (SR) was > 100 µM (inactive) and the GI50 (IGROV-1) was > 100 µM (inactive). For the same molecule, the GI50 (Hs-578T) was > 100 µM (inactive), the GI50 (Malme-3M) was > 100 µM (inactive) and the GI50 (DU-145) was > 100 µM (inactive). The GI50 (HCT-15) was greater than 100 µM, the GI50 (NCI-H226) was > 100 µM (inactive) and the GI50 (MDA-MB-435) was > 100 µM (inactive). The GI50 (MDA-MB-231) was > 100 µM (inactive), the GI50 (HT-29) was > 100 µM (inactive) and the GI50 (RXF 393) was > 100 µM (inactive). For the same molecule, the GI50 (HL-60) was > 100 µM (inactive), the GI50 (SF-268) was > 100 µM (inactive) and the GI50 (COLO 205) was > 100 µM (inactive). The GI50 (MDA-N) was > 100 µM (inactive), the GI50 (SK-MEL-28) was > 100 µM (inactive) and the GI50 (OVCAR-3) was > 100 µM (inactive). For the same molecule, the GI50 (KM12) was > 100 µM (inactive), the GI50 (M14) was > 100 µM (inactive) and the GI50 (NCI/ADR-RES) was > 100 µM (inactive). The GI50 (U-251) was > 100 µM (inactive), the GI50 (SK-MEL-5) was > 100 µM (inactive) and the GI50 (HCT-116) was > 100 µM (inactive). For the same molecule, the GI50 (OVCAR-4) was > 100 µM (inactive), the GI50 (PC-3) was > 100 µM (inactive) and the GI50 (LOX IMVI) was > 100 µM (inactive). The GI50 (SF-295) was > 100 µM (inactive), the GI50 (MOLT-4) was > 100 µM (inactive) and the GI50 (EKVX) was > 100 µM (inactive). For the same molecule, the GI50 (HOP-62) was > 100 µM (inactive), the GI50 (CAKI-1) was > 100 µM (inactive) and the GI50 (ACHN) was > 100 µM (inactive). The GI50 (OVCAR-5) was > 100 µM (inactive), the GI50 (K562) was > 100 µM (inactive) and the GI50 (SN12C) was > 100 µM (inactive).
